Tests used:
A549 = experiment: cells; type: cell-based; conditions: Homo sapiens, A549, read-out: APA (A549) IC50
Method: (§1) FIG. 8 is a graph depicting the mRNA levels of α-1 and α-3 isoforms quantitated by real time RT-PCR (TaqMan) using fluorescent labeled TaqMan probes. Anti-proliferation (IC50 values) activity of BNC4 on indicated cell lines was determined by MTS assay. Total alpha levels (al+a3) were plotted against (1/IC50) X100 values.

Caki-1 (CAKI) = experiment: cells; type: cell-based; conditions: Homo sapiens, CAKI-1, read-out: APA (Caki-1) IC50
Method: as §1

Na-K-ATPase [1] = target: T1, Na-K-ATPase (Canis lupus familiaris, UniProt P50997); experiment: Na-K-ATPase enzyme assay (inorganic phosphate liberated from ATP), dog kidney; type: biochemical
T1 construct: liberated from ATP by Dog Kidney or Porcine cerebral cortex Na-K-ATPase; from tissue; host or cells: dog kidney
Method: (§2) Compounds were tested for their activity on Na-K-ATPase enzyme in an in vitro enzyme assay. The ATPase activity was assayed as the amount of inorganic phosphate liberated from ATP by Dog Kidney or Porcine cerebral cortex Na-K-ATPase.

Na-K-ATPase [2] = experiment: Na-K-ATPase enzyme assay (inorganic phosphate liberated from ATP), pig brain; type: biochemical; conditions: Pig brain; read-out: ATPase Inh, IC50 Pig brain
Method: as §2

[3] = test system: 5-aminoimidazole-4-carbox-amide riboside (AICAR); experiment: AICAR-RA reporter assay; type: cell-based; conditions: indicative of the inhibition of glucose metabolism, read-out: AICAR-RA ED50
Panc-1 (PANC) = experiment: Anti-proliferative activity (APA), Panc-1; type: cell-based; conditions: Homo sapiens, PANC-1, read-out: APA (Panc-1) IC50
Method: as §1

[4] = in vivo; cited from earlier work
A549 sentinel line = experiment: Hypoxic stress response induced by cytotoxic agents in A549 sentinel line; type: cell-based; conditions: chemotherapeutic agent alone
Source text: FIGS. 7A-7E are graphs depicting the stress response of A549 Sentinel Line induced by treatment with Gemcitabine (FIG. 7A) or Gemcitabine in the presence of indicated compound (FIG. 7B-7D). Untreated (control) sample is shown in shadow. […] Similar results can be achieved for other chemotherapeutic agents which induce hypoxic stress, such as paclitaxel, carboplatin, and mitoxantrone.
Similar results were obtained with carboplatin (not shown).

Panc-1 tumors = experiment: In vivo activity against Panc-1 human pancreatic xenograft; set-up: species or system nude mice; conditions: Gemcitabine 40 mg/kg q3d × 4
Method: Panc-1 tumors were injected subcutaneously (sc) into the flanks of male nude mice. After the tumors reached 60 mg in size, osmotic pumps (model 2002, Alzet Inc., flow rate 0.5 μl/hr) containing 15 mg/ml of BP244 were implanted sc on the opposite sides of the mice. The control animals received pumps containing vehicle (10% captisol, Cyclex Inc.). The mice treated with standard chemotherapy agent received intra-peritoneal injections of Gemcitabine at 40 mg/kg every 3 days for 4 treatments (q3d×4). The experiment was terminated when the control group tumor size reached an average of about 1 gram. Upon termination, the mice were weighed, sacrificed and their tumors excised. The tumors were weighed and the mean tumor weight per group was calculated.
A titration experiment was first performed on BP244 to determine its minimum effective dose against Panc-1 human pancreatic xenograft in nude mice. BP244 (sc, osmotic pumps) was first tested at 15, 10 and 5 mg/ml using Alzet pumps as in previous experiments. Gemcitabine (40 mg/kg; q3d×4, i.p.) was also included in the experiment as a comparison. […]

Structure (SMILES)	IC50 (A549) [nM]	IC50 (Caki-1 (CAKI)) [nM]	IC50 (Na-K-ATPase [2]) [nM]	EC50 [3] [nM]	further results
CC(=O)N1CCC(C(=O)O[C@@H]2C=C3CCC4C(CC[C@]5(C)[C@@H](c6ccc(=O)oc6)CC[C@]45O)[C@@]3(C)CC2)CC1 (some centres unmarked)	15	342	396	133	IC50 (Na-K-ATPase [1]): 270 nM
C[C@]12CC[C@H](OC(=O)C3CCNC3)C=C1CCC1C2CC[C@]2(C)[C@@H](c3ccc(=O)oc3)CC[C@]12O (some centres unmarked)	48	112	480	210	IC50 (Na-K-ATPase [1]): 299 nM
CC12CCC(OC(=O)C3CCNCC3)C=C1CCC1C2CCC2(C)C(c3ccc(=O)oc3)CCC12O (centres unmarked)	20	120	136	101	–
CC12CCC(OC(=O)c3ccc(C#N)cc3)C=C1CCC1C2CCC2(C)C(c3ccc(=O)oc3)CCC12O (centres unmarked)	55	84	453	130	–
CCNC(=O)O[C@@H]1C=C2CCC3C(CC[C@]4(C)[C@@H](c5ccc(=O)oc5)CC[C@]34O)[C@@]2(C)CC1 (some centres unmarked)	35	82	210	75	IC50 (Na-K-ATPase [1]): 220 nM
CC(C)(C)NC(=O)OC1C=C2CCC3C(CCC4(C)C(c5ccc(=O)oc5)CCC34O)C2(C)CC1 (centres unmarked)	45	276	207	104	–
CC12CCC(OC(=O)Nc3ccc(F)cc3)C=C1CCC1C2CCC2(C)C(c3ccc(=O)oc3)CCC12O (centres unmarked)	23	142	277	100	–
CCCCNC(=O)OC1C=C2CCC3C(CCC4(C)C(c5ccc(=O)oc5)CCC34O)C2(C)CC1 (centres unmarked)	24	46	206	68	–
CCCNC(=O)OC1C=C2CCC3C(CCC4(C)C(c5ccc(=O)oc5)CCC34O)C2(C)CC1 (centres unmarked)	19	67	198	102	–
CC12CCC(=NOCCN3CCCCC3)C=C1CCC1C2CCC2(C)C(c3ccc(=O)oc3)CCC12O (centres unmarked)	7	27	164	–	IC50 (Panc-1 (PANC)): 16 nM
CCON=C1C=C2CCC3C(CCC4(C)C(c5ccc(=O)oc5)CCC34O)C2(C)CC1 (centres unmarked)	14	19	93	–	–
C=CCON=C1C=C2CCC3C(CCC4(C)C(c5ccc(=O)oc5)CCC34O)C2(C)CC1 (centres unmarked)	9	40	116	–	–
CN(C)CCON=C1C=C2CCC3C(CCC4(C)C(c5ccc(=O)oc5)CCC34O)C2(C)CC1 (centres unmarked)	2	24	85	–	–
C[C@]12CCC(N)C=C1CCC1C2CC[C@]2(C)[C@@H](c3ccc(=O)oc3)CC[C@]12O (some centres unmarked)	5	72	93	–	–
COC1O[C@@H]2[C@@H](N)[C@H](C)OC(C[C@@H]3C=C4CCC5C(CC[C@]6(C)[C@@H](c7ccc(=O)oc7)CC[C@]56O)[C@@]4(C)CC3)[C@@H]2O1 (some centres unmarked)	3	12	206	–	IC50 (Panc-1 (PANC)): 11 nM
CN(C)CCN=C1CC[C@@]2(C)C(CCC3C2CC[C@]2(C)[C@@H](c4ccc(=O)oc4)CC[C@]32O)C1 (some centres unmarked)	25	109	171	–	–
C[C@]12CCC(NCCN3CCOCC3)CC1CCC1C2CC[C@]2(C)[C@@H](c3ccc(=O)oc3)CC[C@]12O (some centres unmarked)	101	276	356	–	–
C[C@@H]1OC(O[C@@H]2C=C3CCC4C(CC[C@]5(C)[C@@H](c6ccc(=O)oc6)CC[C@]45O)[C@@]3(C)CC2)[C@H](O)[C@H](O)[C@H]1N (some centres unmarked)	7	56	540	–	IC50 (Panc-1 (PANC)): 21 nM
CN(C)/N=C1/C=C2CCC3C(CC[C@]4(C)[C@@H](c5ccc(=O)oc5)CC[C@]34O)[C@@]2(C)CC1 (some centres unmarked)	23	118	196	102	–
COC1O[C@@H]2C(=O)[C@H](C)OC(O[C@@H]3C=C4CCC5C(CC[C@]6(C)[C@@H](c7ccc(=O)oc7)CC[C@]56O)[C@@]4(C)CC3)[C@@H]2O1 (some centres unmarked)	–	26	169	–	–
C[C@@H]1CC(O[C@@H]2C=C3CCC4C(CC[C@]5(C)[C@@H](c6ccc(=O)oc6)CC[C@]45O)[C@@]3(C)CC2)[C@H](O)[C@H](O)[C@@H]1O (some centres unmarked)	9	24	129	–	–
C[C@@H]1O[C@@H](O[C@H]2C[C@@H](O)[C@]3(CO)[C@H]4[C@H](O)C[C@]5(C)[C@@H](C6=CC(=O)OC6)CC[C@]5(O)[C@@H]4CC[C@]3(O)C2)[C@H](O)[C@H](O)[C@H]1O [BNC1, ouabain]	–	–	–	–	max. plasma concentration [4]: about 0.03 μg/mL
Nc1ccn([C@@H]2O[C@H](CO)[C@@H](O)C2(F)F)c(=O)n1 [Gemcitabine, reference compound]	–	–	–	–	hypoxic response visualized by A549 sentinel line (A549 sentinel line): further induce hypoxic response; % TGI (d24) (Panc-1 tumors): 65%; % Wt Change (d24) (Panc-1 tumors): 2.60%; Av. Tumor Weight (Panc-1 tumors): 414.3 mg

— US20090023666A1, “Modulators of Hypoxia Inducible Factor-1 and Related Uses” (priority 2006, published 2009)
